Assay results published in patent US7205295B2, “Benzoxazin-3-ones and derivatives thereof as therapeutic agents” (Warner-Lambert Company LLC, priority 2002, dated 2007).

Assays:
[1] = molecular target: T1, PI3Kγ (p101/p110γ protein) (Homo sapiens, UniProt P48736); assay: PI3Kγ In Vitro Kinase Assay; type: biochemical; settings: purified recombinant p101/p110γ with G protein β1/γ2 subunits; 20 μM ATP, 25 μM PIP2; 20 minutes at room temperature
T1 construct: HA; made in house; host or cells: Spodoptera frugiperda (Sf9) cells, baculovirus co-infection
T1 sequence (P48736 whole entry, species assumed): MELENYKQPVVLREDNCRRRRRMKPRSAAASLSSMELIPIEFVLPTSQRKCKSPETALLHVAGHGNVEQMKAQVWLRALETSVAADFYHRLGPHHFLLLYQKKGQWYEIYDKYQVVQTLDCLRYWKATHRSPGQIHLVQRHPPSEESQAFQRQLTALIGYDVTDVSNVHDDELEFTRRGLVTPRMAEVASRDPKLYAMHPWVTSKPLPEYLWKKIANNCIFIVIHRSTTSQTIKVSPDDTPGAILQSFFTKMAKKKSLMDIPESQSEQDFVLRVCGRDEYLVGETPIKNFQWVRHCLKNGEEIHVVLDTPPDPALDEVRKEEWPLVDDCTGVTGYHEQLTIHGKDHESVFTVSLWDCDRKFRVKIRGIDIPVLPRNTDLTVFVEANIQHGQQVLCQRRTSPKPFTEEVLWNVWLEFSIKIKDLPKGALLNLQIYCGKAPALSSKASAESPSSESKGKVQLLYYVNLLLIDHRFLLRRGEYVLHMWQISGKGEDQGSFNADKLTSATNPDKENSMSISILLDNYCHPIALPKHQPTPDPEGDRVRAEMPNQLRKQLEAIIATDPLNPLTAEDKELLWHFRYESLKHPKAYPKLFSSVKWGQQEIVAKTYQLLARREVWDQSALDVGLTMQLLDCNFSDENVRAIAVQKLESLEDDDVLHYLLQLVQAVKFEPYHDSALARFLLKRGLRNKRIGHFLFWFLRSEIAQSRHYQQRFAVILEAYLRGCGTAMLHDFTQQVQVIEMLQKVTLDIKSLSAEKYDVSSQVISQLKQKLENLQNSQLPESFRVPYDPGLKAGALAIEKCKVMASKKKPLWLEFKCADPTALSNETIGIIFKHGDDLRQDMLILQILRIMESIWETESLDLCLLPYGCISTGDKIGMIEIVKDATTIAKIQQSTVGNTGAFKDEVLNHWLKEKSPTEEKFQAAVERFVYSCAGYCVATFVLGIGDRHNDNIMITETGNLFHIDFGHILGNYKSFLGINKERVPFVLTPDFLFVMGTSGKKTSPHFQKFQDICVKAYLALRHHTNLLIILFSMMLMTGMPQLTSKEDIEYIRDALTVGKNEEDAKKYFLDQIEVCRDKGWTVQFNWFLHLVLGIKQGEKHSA
T1 sequence (Q8WYR1 whole entry partner, species assumed): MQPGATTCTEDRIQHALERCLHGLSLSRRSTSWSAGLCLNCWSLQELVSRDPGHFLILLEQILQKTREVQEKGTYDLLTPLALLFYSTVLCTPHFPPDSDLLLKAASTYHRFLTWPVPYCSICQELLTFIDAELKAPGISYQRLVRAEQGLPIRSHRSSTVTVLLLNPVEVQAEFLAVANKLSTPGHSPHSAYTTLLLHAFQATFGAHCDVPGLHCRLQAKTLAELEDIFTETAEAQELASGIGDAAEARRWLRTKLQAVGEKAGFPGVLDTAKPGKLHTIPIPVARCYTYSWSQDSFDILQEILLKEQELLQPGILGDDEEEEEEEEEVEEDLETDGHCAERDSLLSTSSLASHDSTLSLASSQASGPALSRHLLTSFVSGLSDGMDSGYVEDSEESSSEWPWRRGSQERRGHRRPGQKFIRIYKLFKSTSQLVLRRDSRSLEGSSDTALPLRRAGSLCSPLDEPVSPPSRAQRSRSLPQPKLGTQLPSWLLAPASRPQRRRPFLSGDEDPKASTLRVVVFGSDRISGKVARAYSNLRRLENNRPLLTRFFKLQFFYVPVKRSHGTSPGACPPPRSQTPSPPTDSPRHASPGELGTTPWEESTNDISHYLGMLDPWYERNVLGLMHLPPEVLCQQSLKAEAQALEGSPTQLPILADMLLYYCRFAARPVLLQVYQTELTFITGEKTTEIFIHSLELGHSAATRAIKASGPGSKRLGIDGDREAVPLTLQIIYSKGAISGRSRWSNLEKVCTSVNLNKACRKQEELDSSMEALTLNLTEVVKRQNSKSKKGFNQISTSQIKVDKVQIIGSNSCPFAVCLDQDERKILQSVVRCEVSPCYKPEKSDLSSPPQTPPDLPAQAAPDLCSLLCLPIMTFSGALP
How it was run: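 Sf9-expressed, purified human p101/p110γ (2.7 nM) was activated by Gβ1/γ2 (57.7 nM) and reacted with 20 μM ATP plus [γ-32P]ATP on PIP2 (25 μM)/PE (300 μM) micelles with 10 mM MgCl2 in HEPES buffer. Reactions ran 20 min at room temperature. Filter-captured radiolabeled PIP3 was counted by scintillation.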

| Structure (SMILES) | IC50 [1] [nM] | melting point [°C] |
| --- | --- | --- |
| CC(C)Oc1cc(CN2C(=O)COc3ccc(C=C4SC(=S)NC4=O)cc32)cc(OC(C)C)c1 [Example 94, 4-(3,5-Diisopropoxy-benzyl)-6-(4-oxo-2-thioxo-thiazolidin-5-ylidenemethyl)-4H-benzo[1,4]oxazin-3-one] | 29 | 245 to 247 |
| COc1ccc(C(C)(C)C)cc1CN1C(=O)COc2ccc(C=C3SC(=S)NC3=O)cc21 [Example 95, 4-(5-tert-Butyl-2-methoxy-benzyl)-6-(4-oxo-2-thioxo-thiazolidin-5-ylidenemethyl)-4H-1,4-benzoxazin-3-one] | 225 | 255 to 257 |
| Cc1cc(C)c(C)c(CN2C(=O)COc3ccc(C=C4SC(=S)NC4=O)cc32)c1C [Example 96, 6-(4-Oxo-2-thioxo-thiazolidin-5-ylidenemethyl)-4-(2,3,5,6-tetramethyl-benzyl)-4H-1,4-benzoxazin-3-one] | 670 | 277 to 280 |
| Cc1ccc(CN2C(=O)COc3ccc(C=C4SC(=S)NC4=O)cc32)cc1C [Example 97, 4-(3,4-Dimethyl-benzyl)-6-(4-oxo-2-thioxo-thiazolidin-5-ylidenemethyl)-4H-1,4-benzoxazin-3-one] | 3 | > 300 |
| Cc1cccc(CN2C(=O)COc3ccc(C=C4SC(=S)NC4=O)cc32)c1C [Example 98, 4-(2,3-Dimethyl-benzyl)-6-(4-oxo-2-thioxo-thiazolidin-5-ylidenemethyl)-4H-benzo[1,4]oxazin-3-one] | 5 | > 300 |
| Cc1ccc(C)c(CN2C(=O)COc3ccc(C=C4SC(=S)NC4=O)cc32)c1 [Example 99, 4-(2,5-Dimethyl-benzyl)-6-(4-oxo-2-thioxo-thiazolidin-5-ylidenemethyl)-4H-1,4-benzoxazin-3-one] | 18 | > 300 |
| O=C1NC(=S)SC1=Cc1ccc2c(c1)N(CCc1ccc(Br)cc1)C(=O)CO2 [Example 102, 4-[2-(4-Bromo-phenyl)-ethyl]-6-(4-oxo-2-thioxo-thiazolidin-5-ylidenmethyl)-4H-benzo[1,4]oxazin-3-one] | 2 | 274 to 276 |
| O=C1NC(=S)SC1=Cc1ccc2c(c1)N(CCc1ccc(Cl)c(Cl)c1)C(=O)CO2 [Example 103, 4-[2-(3,4-Dichloro-phenyl)-ethyl]-6-(4-oxo-2-thioxo-thiazolidin-5-ylidenmethyl)-4H-benzo[1,4]oxazin-3-one] | 4 | 267 to 269 |
| O=C1NC(=S)SC1=Cc1ccc2c(c1)N(CCc1ccc(C(F)(F)F)cc1)C(=O)CO2 [Example 104, 6-(Oxo-2-thioxo-thiazolidin-5-ylidenmethyl)-4-[2-(4-trifluoromethyl-phenyl)-ethyl]-4H-benzo[1,4]oxazin-3-one] | 2 | 253 to 255 |
| O=C1NC(=S)SC1=Cc1ccc2c(c1)N(CCc1ccc(Cl)cc1Cl)C(=O)CO2 [Example 105, 4-[2-(2,4-Dichloro-phenyl)-ethyl]-6-(4-oxo-2-thioxo-thiazolidin-5-ylidenmethyl)-4H-benzo[1,4]oxazin-3-one] | 5 | 267 to 269 |
| O=C1NC(=S)SC1=Cc1ccc2c(c1)N(CCc1cccc(C(F)(F)F)c1)C(=O)CO2 [Example 106, 6-(Oxo-2-thioxo-thiazolidin-5-ylidenmethyl)-4-[2-(3-trifluoromethyl-phenyl)-ethyl]-4H-benzo[1,4]oxazin-3-one] | 9 | 241 to 243 |
| O=C1NC(=S)SC1=Cc1cc(Cl)c2c(c1)N(CCc1ccc(C(F)(F)F)cc1)C(=O)CO2 [Example 107, 8-Chloro-6-(oxo-2-thioxo-thiazolidin-5-ylidenmethyl)-4-[2-(4-trifluoromethyl-phenyl)-ethyl]-4H-benzo[1,4]oxazin-3-one] | 72 | 275 to 277 |
| O=C1NC(=S)SC1=Cc1ccc2c(c1)N(CCc1ccccc1C(F)(F)F)C(=O)CO2 [Example 108, 6-(Oxo-2-thioxo-thiazolidin-5-ylidenmethyl)-4-[2-(2-trifluoromethyl-phenyl)-ethyl]-4H-benzo[1,4]oxazin-3-one] | 4 | 283 to 286 |
| O=C1NC(=S)SC1=Cc1ccc2c(c1)N(Cc1cccc(-c3ccncc3)c1)C(=O)CO2 [Example 114, 6-(4-Oxo-2-thioxo-thiazolidin-5-ylidenemethyl)-4-(3-pyridin-4-yl-benzyl)-4H-benzo[1,4]-oxazin-3-one] | 5 | 297 to 299 |
| O=C1NC(=S)SC1=Cc1ccc2c(c1)N(CCc1ccc(Oc3ccccc3)cc1)C(=O)CO2 [Example 129, 6-(4-Oxo-2-thioxo-thiazolidin-5-ylidenemethyl)-4-[2-(4-phenoxy-phenyl)-ethyl]-4H-1,4-benzoxazin-3-one] | 49 | 220 to 224 |
| COc1cc(CCN2C(=O)COc3ccc(C=C4SC(=S)NC4=O)cc32)cc(OC)c1 [Example 130, 4-[2-(3,5-Dimethoxy-phenyl)-ethyl]-6-(4-oxo-2-thioxo-thiazolidin-5-ylidenemethyl)-4H-benzo[1,4]oxazin-3-one] | 3 | 267 to 269 |
| CC(C)(C)c1ccc(CCN2C(=O)COc3ccc(C=C4SC(=S)NC4=O)cc32)cc1 [Example 131, 4-[2-(4-tert-Butyl-phenyl)-ethyl]-6-(4-oxo-2-thioxo-thiazolidin-5-ylidenemethyl)-4H-benzo[1,4]-oxazin-3-one] | 39 | 283 to 285 |
| CN(C)c1ccc(CCN2C(=O)COc3ccc(C=C4SC(=S)NC4=O)cc32)cc1 [Example 132, 4-[2-(4-Dimethylaniino-phenyl)-ethyl]-6-(4-oxo-2-thioxo-thiazolidin-5-ylidenemethyl)-4H-benzo[1,4]-oxazin-3-one] | 12 | 266 to 268 |
| O=C1NC(=S)SC1=Cc1ccc2c(c1)N(CCc1ccc(F)c(F)c1)C(=O)CO2 [Example 133, 4-[2-(3,4-Difluoro-phenyl)-ethyl]-6-(4-oxo-2-thioxo-thiazolidin-5-ylidenemethyl)-4H-benzo[1,4]oxazin-3-one] | 5 | 263 to 266 |
| O=C1NC(=S)SC1=Cc1ccc2c(c1)N(CCc1ccc(Cl)cc1)C(=O)CO2 [Example 134, 4-[2-(4-Chloro-phenyl)-ethyl]-6-(4-oxo-2-thioxo-thiazolidin-5-ylidenemethyl)-4H-1,4-benzoxazin-3-one] | 5 | 278 to 280 |
| O=C1NC(=S)SC1=Cc1ccc2c(c1)N(CCc1cccc(Cl)c1)C(=O)CO2 [Example 135, 4-[2-(3-Chloro-phenyl)-ethyl]-6-(4-oxo-2-thioxo-thiazolidin-5-ylidenemethyl)-4H-1,4-benzoxazin-3-one] | 5 | 280 to 282 |
| COc1cccc(CCN2C(=O)COc3ccc(C=C4SC(=S)NC4=O)cc32)c1 [Example 137, 4-[2-(3-Methoxy-phenyl)-ethyl]-6-(4-oxo-2-thioxo-thiazolidin-5-ylidenemethyl)-4H-1,4-benzoxazin-3-one] | 3 | 233 to 236 |
| Cc1ccc(CCN2C(=O)COc3ccc(C=C4SC(=S)NC4=O)cc32)cc1 [Example 138, 6-(4-Oxo-2-thioxo-thiazolidin-5-ylidenemethyl)-4-(2-p-tolyl-ethyl)-4H-1,4-benzoxazin-3-one] | 10 | 267 to 269 |
| O=C1NC(=S)SC1=Cc1ccc2c(c1)N(OCc1ccc(C(F)(F)F)cc1)C(=O)CO2 [Example 207, 6-(4-Oxo-2-thioxo-thiazolidin-5-ylidenemethyl)-4-(4-trifluoromethyl-benzyloxy)-4H-benzo[1,4]oxazin-3-one] | 2 | > 300 |
| O=C1NC(=S)SC1=Cc1ccc2c(c1)N(OCC1CCCCC1)C(=O)CO2 [Example 208, 4-Cyclohexylmethoxy-6-(4-oxo-2-thioxo-thiazolidin-5-ylidenemethyl)-4H-benzo[1,4]oxazin-3-.one] | 2 | 249 to 250 |
| CC(C)(C)c1cc(CON2C(=O)COc3ccc(C=C4SC(=S)NC4=O)cc32)cc(C(C)(C)C)n1 [Example 209, 4-(2,6-Di-tert-butyl-pyridin-4-ylmethoxy)-6-(4-oxo-2-thioxo-thiazolidin-5-ylidenemethyl)-4H-benzo[1,4]oxazin-3-one] | 74 | > 300 |
